From patent publication US12497663B2, “Method of monitoring treatment” (LDN Pharma Limited, priority 2019, dated 2025)

Legend:
[1] = system: CD3+/CD8+ cells (killer T-cells); assay: CD69 expression of PBMCs cultured with LDN or NTX (flow cytometry); assay type: cell-based; conditions: 48 h
Protocol: Peripheral-blood mononuclear cells were isolated from whole blood or from the residue product of leukoreduction of whole blood from pathologically healthy donors using Histopaque-1077. The mononuclear fraction was harvested and red blood cell contamination removed by incubation in hypotonic ammonium chloride. Cells were washed in phosphate buffered saline (PBS) and platelet contamination removed by centrifugation at 200 g for 10 min, re-suspended at a concentration of 1×10^6 ml in RPMI-1640 culture medium. […] Peripheral-blood mononuclear cells were washed twice in wash buffer (PBS containing 1% (v/v) FBS and 0.09% (v/v) NaN3), and stained for 30 min at 4° C. with the relevant and stated antibodies for assessment of immune cell profile. Cells were washed in wash buffer and fixed in 4% paraformaldehyde for 20 min at 4° C. Expressions of the surface markers were analysed using a BD Science LSR II Flow Cytometer with dedicated proprietary software.
The activation state of CD3+ cells is indicated by CD69 expression; higher levels of CD69 expression correlate with increased CD3+ activation. CD3+ cells are T cell co-receptors that help to activate both the cytotoxic T cell (CD8+ naive T cells) and also T helper cells (CD4+ naive T cells). […] Thus, when LDN has completed its priming and the gene expressions are as determined in Example 1, the immune system is suitably boosted.

CD3+ cells = assay: Gene expression in CD3+ cells from CD14-ve PBMCs cultured with naltrexone (Illumina biochips); assay type: cell-based, human; conditions: 4 h
Protocol: The RNA was then extracted from the cells using Trizol then isopropanol. The expression of the genes was measured using Illumina platform with biochips surveying the total human genome. […] The ratio of treated:untreated was calculated and the 25% change from untreated considered relevant.

[2] = ratio treated:untreated, 10 nM naltrexone
[3] = ratio treated:untreated, 10 uM naltrexone

## O=C1CC[C@@]2(O)[C@H]3Cc4ccc(O)c5c4[C@@]2(CCN3CC2CC2)[C@H]1O5 [NTX, morphinan-6-one,17-(cyclopropylmethyl)-4,5-epoxy-3,14-dihydroxy-(5a)]
[1]; 10 nM naltrexone (LDN)
  CD69 expression in CD3+/CD8+ cells: increased
[1]; 10 uM naltrexone (NTX)
  CD69 expression in CD3+/CD8+ cells: did not increase
CD3+ cells; 10 nM LDN vs 10 uM NTX, 19,571 genes called present, 25% change relevant
  number of genes upregulated by LDN but unchanged by NTX: 223 genes
CD3+ cells; 10 nM naltrexone (LDN)
  ACTB expression, LDN: 156
  ALDH4A1 expression, LDN: 135
  ASAP1 expression, LDN: 97
  BCLAF1 expression, LDN: 130
  BIRC3 expression, LDN: 173
  CASZ1 expression, LDN: 167
  CDC42SE2 expression, LDN: 119
  CDKN2AIP expression, LDN: 93
  DRAP1 expression, LDN: 309
  DYNLL2 expression, LDN: 93
  EIF2S3 expression, LDN: 135
  EIF3E expression, LDN: 427
  EIF4B expression, LDN: 594
  EZR expression, LDN: 1218
  FRG1 expression, LDN: 99
  H3F3A expression, LDN: 616
  HIST1H4C expression, LDN: 1093
  HPCAL1 expression, LDN: 491
  ITGB2 expression, LDN: 719
  KCTD6 expression, LDN: 105
  LSM5 expression, LDN: 166
  MAP4K1 expression, LDN: 475
  MORF4L1 expression, LDN: 135
  MTF1 expression, LDN: 84
  MYLK expression, LDN: 166
  NUCB1 expression, LDN: 436
  OR10A6 expression, LDN: 152
  PAH expression, LDN: 135
  PDCD4 expression, LDN: 83
  PECI expression, LDN: 85
  PRPF8 expression, LDN: 464
  PSME2 expression, LDN: 144
  PVRL2 expression, LDN: 151
  RASAL3 expression, LDN: 356
  S100A6 expression, LDN: 240
  SH3BGRL3 expression, LDN: 327
  SPOCK2 expression, LDN: 1322
  WDR75 expression, LDN: 81
  YWHAZ expression, LDN: 809
CD3+ cells; 10 nM naltrexone
  ACTB L/U-score: U (increase)
  ALDH4A1 L/U-score: U (increase)
  ASAP1 L/U-score: D (reduction)
  BCLAF1 L/U-score: D (reduction)
  BIRC3 L/U-score: D (reduction)
  CASZ1 L/U-score: U (increase)
  CDC42SE2 L/U-score: D (reduction)
  CDKN2AIP L/U-score: D (reduction)
  DRAP1 L/U-score: U (increase)
  DYNLL2 L/U-score: D (reduction)
  EIF2S3 L/U-score: D (reduction)
  EIF3E L/U-score: D (reduction)
  EIF3M L/U-score: D (reduction)
  EIF4B L/U-score: U (increase)
  EZR L/U-score: U (increase)
  FRG1 L/U-score: D (reduction)
  H3F3A L/U-score: D (reduction)
  HIST1H4C L/U-score: D (reduction)
  HPCAL1 L/U-score: U (increase)
  ITGB2 L/U-score: U (increase)
  KCTD6 L/U-score: D (reduction)
  LSM5 L/U-score: D (reduction)
  MAP4K1 L/U-score: U (increase)
  MORF4L1 L/U-score: D (reduction)
  MTF1 L/U-score: D (reduction)
  MYLK L/U-score: U (increase)
  NUCB1 L/U-score: U (increase)
  OR10A6 L/U-score: U (increase)
  PAH L/U-score: U (increase)
  PDCD4 L/U-score: D (reduction)
  PECI L/U-score: D (reduction)
  PRPF8 L/U-score: U (increase)
  PSME2 L/U-score: D (reduction)
  PVRL2 L/U-score: U (increase)
  RASAL3 L/U-score: U (increase)
  S100A6 L/U-score: U (increase)
  SH3BGRL3 L/U-score: U (increase)
  SPOCK2 L/U-score: U (increase)
  WDR75 L/U-score: D (reduction)
  YWHAZ L/U-score: U (increase)
CD3+ cells; 10 uM naltrexone (NTX)
  ACTB expression, NTX: 124
  ALDH4A1 expression, NTX: 95
  ASAP1 expression, NTX: 114
  BCLAF1 expression, NTX: 159
  BIRC3 expression, NTX: 226
  CASZ1 expression, NTX: 107
  CDC42SE2 expression, NTX: 161
  CDKN2AIP expression, NTX: 101
  DRAP1 expression, NTX: 178
  DYNLL2 expression, NTX: 115
  EIF2S3 expression, NTX: 146
  EIF3E expression, NTX: 601
  EIF3M expression, NTX: 131
  EIF4B expression, NTX: 423
  EZR expression, NTX: 841
  FRG1 expression, NTX: 124
  H3F3A expression, NTX: 739
  HIST1H4C expression, NTX: 1370
  HPCAL1 expression, NTX: 275
  ITGB2 expression, NTX: 443
  KCTD6 expression, NTX: 116
  LSM5 expression, NTX: 218
  MAP4K1 expression, NTX: 267
  MORF4L1 expression, NTX: 149
  MTF1 expression, NTX: 95
  MYLK expression, NTX: 124
  NUCB1 expression, NTX: 337
  OR10A6 expression, NTX: 120
  PAH expression, NTX: 95
  PDCD4 expression, NTX: 96
  PECI expression, NTX: 131
  PRPF8 expression, NTX: 353
  PSME2 expression, NTX: 180
  PVRL2 expression, NTX: 113
  RASAL3 expression, NTX: 186
  S100A6 expression, NTX: 112
  SH3BGRL3 expression, NTX: 271
  WDR75 expression, NTX: 95
  YWHAZ expression, NTX: 462
CD3+ cells; 10 uM naltrexone
  ACTB N/U-score: o (no change)
  ALDH4A1 N/U-score: o (no change)
  ASAP1 N/U-score: o (no change)
  BCLAF1 N/U-score: o (no change)
  BIRC3 N/U-score: o (no change)
  CASZ1 N/U-score: o (no change)
  CDC42SE2 N/U-score: o (no change)
  CDKN2AIP N/U-score: o (no change)
  DRAP1 N/U-score: D (reduction)
  DYNLL2 N/U-score: o (no change)
  EIF2S3 N/U-score: o (no change)
  EIF3E N/U-score: o (no change)
  EIF3M N/U-score: o (no change)
  EIF4B N/U-score: o (no change)
  EZR N/U-score: o (no change)
  FRG1 N/U-score: o (no change)
  H3F3A N/U-score: o (no change)
  HIST1H4C N/U-score: o (no change)
  HPCAL1 N/U-score: o (no change)
  ITGB2 N/U-score: o (no change)
  KCTD6 N/U-score: o (no change)
  LSM5 N/U-score: o (no change)
  MAP4K1 N/U-score: D (reduction)
  MORF4L1 N/U-score: o (no change)
  MTF1 N/U-score: o (no change)
  MYLK N/U-score: o (no change)
  NUCB1 N/U-score: o (no change)
  OR10A6 N/U-score: o (no change)
  PAH N/U-score: o (no change)
  PDCD4 N/U-score: o (no change)
  PECI N/U-score: o (no change)
  PRPF8 N/U-score: o (no change)
  PSME2 N/U-score: o (no change)
  PVRL2 N/U-score: o (no change)
  RASAL3 N/U-score: D (reduction)
  S100A6 N/U-score: D (reduction)
  SH3BGRL3 N/U-score: o (no change)
  SPOCK2 N/U-score: o (no change)
  WDR75 N/U-score: o (no change)
  YWHAZ N/U-score: D (reduction)
CD3+ cells; [2]
  ACTB LDN/UN: 1.560
  ALDH4A1 LDN/UN: 1.691
  ASAP1 LDN/UN: 0.701
  BCLAF1 LDN/UN: 0.653
  BIRC3 LDN/UN: 0.703
  CASZ1 LDN/UN: 1.775
  CDC42SE2 LDN/UN: 0.590
  CDKN2AIP LDN/UN: 0.702
  DRAP1 LDN/UN: 1.253
  DYNLL2 LDN/UN: 0.702
  EIF2S3 LDN/UN: 0.702
  EIF3E LDN/UN: 0.647
  EIF3M LDN/UN: 0.613
  EIF4B LDN/UN: 1.576
  EZR LDN/UN: 1.563
  FRG1 LDN/UN: 0.614
  H3F3A LDN/UN: 0.632
  HIST1H4C LDN/UN: 0.667
  HPCAL1 LDN/UN: 1.515
  ITGB2 LDN/UN: 1.528
  KCTD6 LDN/UN: 0.700
  LSM5 LDN/UN: 0.639
  MAP4K1 LDN/UN: 1.294
  MORF4L1 LDN/UN: 0.698
  MTF1 LDN/UN: 0.676
  MYLK LDN/UN: 1.659
  NUCB1 LDN/UN: 1.483
  OR10A6 LDN/UN: 1.570
  PAH LDN/UN: 1.687
  PDCD4 LDN/UN: 0.672
  PECI LDN/UN: 0.675
  PRPF8 LDN/UN: 1.543
  PSME2 LDN/UN: 0.700
  PVRL2 LDN/UN: 1.483
  RASAL3 LDN/UN: 1.365
  S100A6 LDN/UN: 1.397
  SH3BGRL3 LDN/UN: 1.479
  SPOCK2 LDN/UN: 1.487
  WDR75 LDN/UN: 0.705
  YWHAZ LDN/UN: 1.287
CD3+ cells; [3]
  ACTB NTX/UN: 1.241
  ALDH4A1 NTX/UN: 1.184
  ASAP1 NTX/UN: 0.826
  BCLAF1 NTX/UN: 0.800
  BIRC3 NTX/UN: 0.918
  CASZ1 NTX/UN: 1.130
  CDC42SE2 NTX/UN: 0.796
  CDKN2AIP NTX/UN: 0.766
  DRAP1 NTX/UN: 0.723
  DYNLL2 NTX/UN: 0.865
  EIF2S3 NTX/UN: 0.756
  EIF3E NTX/UN: 0.910
  EIF3M NTX/UN: 0.757
  EIF4B NTX/UN: 1.123
  EZR NTX/UN: 1.079
  FRG1 NTX/UN: 0.773
  H3F3A NTX/UN: 0.758
  HIST1H4C NTX/UN: 0.836
  HPCAL1 NTX/UN: 0.849
  ITGB2 NTX/UN: 0.942
  KCTD6 NTX/UN: 0.774
  LSM5 NTX/UN: 0.839
  MAP4K1 NTX/UN: 0.726
  MORF4L1 NTX/UN: 0.772
  MTF1 NTX/UN: 0.771
  MYLK NTX/UN: 1.241
  NUCB1 NTX/UN: 1.148
  OR10A6 NTX/UN: 1.235
  PAH NTX/UN: 1.183
  PDCD4 NTX/UN: 0.779
  PECI NTX/UN: 1.043
  PRPF8 NTX/UN: 1.174
  PSME2 NTX/UN: 0.877
  PVRL2 NTX/UN: 1.102
  RASAL3 NTX/UN: 0.713
  S100A6 NTX/UN: 0.655
  SH3BGRL3 NTX/UN: 1.224
  SPOCK2 NTX/UN: 1.194
  WDR75 NTX/UN: 0.830
  YWHAZ NTX/UN: 0.736
